Results from PMC7822892, “Avian antimicrobial peptides: in vitro and in ovo characterization and protection from early chick mortality caused by yolk sac infection” (Scientific Reports, 2021).
Values after ≈ are worked out from the molar mass of the structure shown. Where a SMILES comes first, the peptide text is derived from it. Where no end group is shown, it is not given here.

Legend:
[1] = system: human PBMCs, monocyte chemotactic protein 1 (MCP-1); set-up: method as in PMID 19524300; details: in vitro stimulation of human PBMCs for 24 h; cited from earlier work
[2] = system: Clostridium perfringens JP26; details: Clostridium perfringens JP26, 10^4–10^5 CFU/ml in PBS pH 7.4, 2 h at 37 °C, duplicate, plating
[3] = system: all tested bacteria (E. coli, S. Enteritidis, S. Typhimurium, C. jejuni, C. perfringens); details: 10^4–10^5 CFU/ml, 2 h
[4] = system: human peripheral blood mononuclear cells (PBMCs) and chicken erythrocytes; details: cited from earlier work
HD11 cells = experiment: HD11 cytotoxicity, WST-1 assay; details: 1.875 to 30 µg/ml, 24 h
E. coli EC317 = details: EC317, 2 h, 240 µg/ml

Compound: CATH-2: mature, full-length chicken cathelicidin-2 (literature values)
- MCP-1 production (in words) [1]: significant induction

Compound: RFGRFLRKIRRFRPK [CATH-2(1–15)]
- Minimum inhibitory concentration (MIC) that kills 100% bacteria [2]: > 118.05 µM
- MIC over tested Gram-negative bacteria ([3]; E. coli, S. Enteritidis, S. Typhimurium, C. jejuni): 0.92 to 7.38 µM
- Toxicity (in words) [4]: non-toxic or very mildly toxic

Compound: CC[C@H](C)[C@H](NC(=O)[C@H](CCCNC(=N)N)NC(=O)[C@H](CCCCN)NC(=O)[C@H](CS)NC(=O)[C@H](CS)NC(=O)[C@H](CC(C)C)NC(=O)[C@H](Cc1ccc(O)cc1)NC(=O)[C@H](Cc1ccccc1)NC(=O)[C@H](CCCNC(=N)N)NC(=O)[C@H](CO)NC(=O)[C@H](CS)NC(=O)[C@H](CCCCN)NC(=O)CNC(=O)[C@H](CO)NC(=O)[C@@H](NC(=O)[C@H](CC(C)C)NC(=O)[C@@H](NC(=O)[C@H](CC(C)C)NC(=O)[C@H](CO)NC(=O)[C@@H]1CCCN1C(=O)[C@H](CS)NC(=O)[C@H](CCCCN)NC(=O)[C@H](CC(C)C)NC(=O)[C@H](Cc1ccccc1)NC(=O)[C@H](C)NC(=O)[C@H](CS)NC(=O)[C@H](Cc1ccccc1)NC(=O)CNC(=O)[C@H](CO)NC(=O)[C@H](CCCCN)NC(=O)[C@H](CCCNC(=N)N)NC(=O)[C@H](Cc1ccccc1)NC(=O)[C@H](CS)NC(=O)[C@H](CC(=O)O)NC(=O)[C@H](CO)NC(=O)[C@H](CCCCN)NC(=O)[C@H](CCCNC(=N)N)NC(=O)CN)[C@@H](C)O)[C@@H](C)CC)C(=O)N[C@@H](Cc1c[nH]c2ccccc12)C(=O)O [ABD1] (H-GRKSDCFRKSGFCAFLKCPSLTLISGKCSRFYLCCKRIW-OH)
- Minimum inhibitory concentration (MIC) that kills 100% bacteria [2]: 0.83 µM (≈ 3.74 µg/mL)
- MIC over all tested bacteria ([3]; five strains): 0.83 to 1.66 µM
- Effect on growth and metabolic activity of HD11 cells (in words) (HD11 cells): not shown any significant effect

Compound: DTLACRQSHGSCSFVACRAPSVDIGTCRGGKLKCCKWAPSS (cysteines drawn unpaired) [ABD9]
- Growth inhibition (E. coli EC317): 40–90%
- Minimum inhibitory concentration (MIC) that kills 100% bacteria [2]: > 55.97 µM
- Effect on growth and metabolic activity of HD11 cells (in words) (HD11 cells): not shown any significant effect

Compound: SPIHACRYQRGVCIPGPCRWPYYRVGSCGSGLKSCCVRNRWA (cysteines drawn unpaired) [ABD6]
- Minimum inhibitory concentration (MIC) that kills 100% bacteria [2]: 50.59 µM
- Effect on growth and metabolic activity of HD11 cells (in words) (HD11 cells): not shown any significant effect

Compound: CC[C@H](C)[C@H](NC(=O)[C@H](CC(C)C)NC(=O)[C@H](Cc1c[nH]cn1)NC(=O)[C@H](CO)NC(=O)[C@@H]1CCCN1C(=O)[C@H](CS)NC(=O)CNC(=O)CNC(=O)[C@H](Cc1ccccc1)NC(=O)[C@H](Cc1c[nH]cn1)NC(=O)[C@H](CS)NC(=O)[C@H](CO)NC(=O)CNC(=O)CNC(=O)[C@H](CCCCN)NC(=O)[C@H](CS)NC(=O)[C@H](Cc1ccccc1)NC(=O)[C@H](CC(C)C)NC(=O)[C@H](CCSC)NC(=O)[C@H](CC(=O)O)NC(=O)[C@@H](N)CCCNC(=N)N)C(=O)N[C@@H](CCCCN)C(=O)N[C@H](C(=O)NCC(=O)N[C@@H](CO)C(=O)N[C@@H](CS)C(=O)N[C@@H](Cc1ccccc1)C(=O)NCC(=O)N[C@@H](Cc1ccccc1)C(=O)N[C@@H](CCCNC(=N)N)C(=O)N[C@@H](CO)C(=O)N[C@@H](CS)C(=O)N[C@@H](CS)C(=O)N[C@@H](CCCCN)C(=O)N[C@@H](Cc1c[nH]c2ccccc12)C(=O)N1CCC[C@H]1C(=O)N[C@@H](Cc1c[nH]c2ccccc12)C(=O)N[C@@H](CC(N)=O)C(=O)N[C@@H](C)C(=O)O)C(C)C [ABD2] (H-RDMLFCKGGSCHFGGCPSHLIKVGSCFGFRSCCKWPWNA-OH)
- Minimum inhibitory concentration (MIC) that kills 100% bacteria [2]: > 55.50 µM
- Effect on growth and metabolic activity of HD11 cells (in words) (HD11 cells): not shown any significant effect

Compound: CATH-2(1–21): analog of CATH-2 (literature values)
- MCP-1 production (in words) [1]: significant induction
